# Legend:
# Test in all cases: combination Emax (second highest fraction inhibited in the dose matrix, 72 h); higher = more inhibition; extreme values may be limits of the assay
# [1] = test system: TE-6 (Esophageal Squamous Cell Carcinoma)
# Outline: (§1)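 Bliss excess equals the observed combination effect minus the expected value EA + EB − EA·EB, where EA and EB are the effects of each agent alone. Combination Emax is the second-highest inhibition within the matrix. Inhibition was scaled from CellTiter-Glo 2.0 luminescence, with 0 set by vehicle wells and 1 by blank wells, after 72 hours of two-drug dosing of cells plated in 1536-well plates.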
# [2] = test system: MOLT-16 (T-Lymphoblastic Leukemia)
# Outline: as §1
# LN-18 (Glioblastoma) = test system: LN-18 (Glioblastoma)
# Outline: as §1
# [3] = test system: KM12 (Colorectal Carcinoma)
# Outline: as §1
# [4] = test system: COLO-678 (Colorectal Carcinoma)
# Outline: as §1
# [5] = test system: CAMA-1 (Breast Carcinoma)
# Outline: as §1
# [6] = test system: BL-41 (Burkitt's Lymphoma)
# Outline: as §1
# [7] = test system: KYSE-180 (Esophageal Squamous Cell Carcinoma)
# Outline: as §1
# U251 (Low Grade Glioma) = test system: U251 (Low Grade Glioma)
# Outline: as §1
# [8] = test system: DiFi (Colorectal Carcinoma)
# Outline: as §1
# [9] = test system: EVSA-T (Breast Carcinoma)
# Outline: as §1
# MEL-JUSO (Melanoma) = test system: MEL-JUSO (Melanoma)
# Outline: as §1
# WIL2-NS (Non-Cancerous) = test system: WIL2-NS (Non-Cancerous)
# Outline: as §1
# [10] = test system: TOV-112D (Ovarian Carcinoma)
# Outline: as §1
# ES8 (Ewing's Sarcoma) = test system: ES8 (Ewing's Sarcoma)
# Outline: as §1
# [11] = test system: SW1417 (Colorectal Carcinoma)
# Outline: as §1
# [12] = test system: HL-60 (Acute Myeloid Leukemia)
# Outline: as §1
# [13] = test system: SW837 (Colorectal Carcinoma)
# Outline: as §1
# [14] = test system: P12-ICHIKAWA (T-Lymphoblastic Leukemia)
# Outline: as §1
# [15] = test system: BFTC-905 (Bladder Carcinoma)
# Outline: as §1
Compound,combination Emax [1],combination Emax [2],combination Emax (LN-18 (Glioblastoma)),combination Emax [3],combination Emax [4],combination Emax [5],combination Emax [6],combination Emax [7],combination Emax (U251 (Low Grade Glioma)),combination Emax [8],combination Emax [9],combination Emax (MEL-JUSO (Melanoma)),combination Emax (WIL2-NS (Non-Cancerous)),combination Emax [10],combination Emax (ES8 (Ewing's Sarcoma)),combination Emax [11],combination Emax [12],combination Emax [13],combination Emax [14],combination Emax [15]
"COc1nnc2ccc(N3CCC(c4ccc(OCCN5CCN(C)C(=O)[C@H]5C)cc4)CC3)nn12 [AZD5153] + Cc1c2c(nn1C)CSCc1cc(n(C)n1)CSc1cc(c3ccccc3c1)OCCCc1c(C(=O)O)n(C)c3c-2c(Cl)ccc13 [AZD5991] (first compound max 1 µM, 7x7, partner max 1 µM)",0.77,1,0.616,0.648,0.51,0.951,1,0.513,0.65,0.768,1,0.306,0.849,0.986,0.891,0.459,1,0.571,1,0.746
"COc1nnc2ccc(N3CCC(c4ccc(OCCN5CCN(C)C(=O)[C@H]5C)cc4)CC3)nn12 [AZD5153] + Cn1cnc2c(F)c(Nc3ccc(Br)cc3Cl)c(C(=O)NOCCO)cc21 [Selumetinib] (first compound max 1 µM, 7x7, partner max 10 µM)",0.711,0.949,0.721,0.786,0.615,0.506,0.863,0.401,0.592,0.962,0.942,0.59,0.881,0.684,0.681,0.778,0.966,0.753,0.99,0.873
"Cc1c2c(nn1C)CSCc1cc(n(C)n1)CSc1cc(c3ccccc3c1)OCCCc1c(C(=O)O)n(C)c3c-2c(Cl)ccc13 [AZD5991] + C1CN(CCC1(C(=O)N[C@@H](CCO)C2=CC=C(C=C2)Cl)N)C3=NC=NC4=C3C=CN4 [Capivasertib] (first compound max 1 µM, 7x7, partner max 3 µM)",0.811,1,0.409,0.553,0.194,0.994,1,0.922,0.224,0.438,1,0.346,0.666,0.407,0.679,0.208,1,0.121,1,0.206
"Cc1c2c(nn1C)CSCc1cc(n(C)n1)CSc1cc(c3ccccc3c1)OCCCc1c(C(=O)O)n(C)c3c-2c(Cl)ccc13 [AZD5991] + C=CCn1c(=O)c2cnc(Nc3ccc(N4CCN(C)CC4)cc3)nc2n1-c1cccc(C(C)(C)O)n1 [AZD1775] (first compound max 1 µM, partner max 1 µM)",0.773,1,0.602,0.875,0.391,0.635,1,0.95,0.423,0.856,1,0.749,0.963,0.714,0.717,0.542,1,0.406,1,0.673
"Cc1c2c(nn1C)CSCc1cc(n(C)n1)CSc1cc(c3ccccc3c1)OCCCc1c(C(=O)O)n(C)c3c-2c(Cl)ccc13 [AZD5991] + CC1(C)CCC(CN2CCN(c3ccc(C(=O)NS(=O)(=O)c4ccc(NCC5CCOCC5)c([N+](=O)[O-])c4)c(Oc4cnc5[nH]ccc5c4)c3)CC2)=C(c2ccc(Cl)cc2)C1 [Venetoclax] (first compound max 1 µM, 7x7, partner max 1 µM)",0.677,1,0.374,0.173,0.0393,0.934,1,0.922,0.239,0.624,1,0.339,0.23,0.777,0.864,0.191,1,0.184,1,0.604
"Cc1c2c(nn1C)CSCc1cc(n(C)n1)CSc1cc(c3ccccc3c1)OCCCc1c(C(=O)O)n(C)c3c-2c(Cl)ccc13 [AZD5991] + CCN(CCO)CCCOc1ccc2c(Nc3cc(CC(=O)Nc4cccc(F)c4)[nH]n3)ncnc2c1 [AZD2811] (first compound max 1 µM, 7x7, partner max 1 µM)",0.715,1,0.701,0.249,0.227,0.914,1,0.942,0.423,0.859,1,0.592,0.339,0.868,1,0.23,1,0.231,1,0.794
"Cc1c2c(nn1C)CSCc1cc(n(C)n1)CSc1cc(c3ccccc3c1)OCCCc1c(C(=O)O)n(C)c3c-2c(Cl)ccc13 [AZD5991] + CN(C)CCCOc1ccc(-c2ccc3ncc4c(c3c2)n(C2CCOCC2)c(=O)n4C)cn1 [AZD0156] (first compound max 1 µM, 7x7, partner max 1 µM)",0.792,1,0.514,0.27,0.152,0.555,1,0.934,0.607,0.252,1,0.439,0.388,0.551,0.385,0.263,1,0.208,0.994,0.273
"Cc1c2c(nn1C)CSCc1cc(n(C)n1)CSc1cc(c3ccccc3c1)OCCCc1c(C(=O)O)n(C)c3c-2c(Cl)ccc13 [AZD5991] + C[C@@H]1COCCN1C2=NC(=NC(=C2)C3(CC3)[S@](=N)(=O)C)C4=C5C=CNC5=NC=C4 [AZD6738] (first compound max 1 µM, 7x7, partner max 10 µM)",0.817,1,0.842,0.746,0.241,0.751,1,0.979,0.648,0.923,1,0.684,0.969,0.963,0.891,0.453,1,0.354,1,0.862
"Cc1c2c(nn1C)CSCc1cc(n(C)n1)CSc1cc(c3ccccc3c1)OCCCc1c(C(=O)O)n(C)c3c-2c(Cl)ccc13 [AZD5991] + C[C@@H](Nc1cc(F)cc(F)c1)c1cc(C(=O)N(C)C)cc2c(=O)cc(N3CCOCC3)oc12 [AZD8186] (first compound max 1 µM, 7x7, partner max 3 µM)",0.677,1,0.573,0.205,0.278,0.98,1,0.877,0.226,0.35,1,0.527,0.337,0.35,0.613,0.275,1,0.188,0.964,0.289
"Cc1c2c(nn1C)CSCc1cc(n(C)n1)CSc1cc(c3ccccc3c1)OCCCc1c(C(=O)O)n(C)c3c-2c(Cl)ccc13 [AZD5991] + Cc1cc2ncnn2cc1Nc1ncc2c(n1)n(C1CCOCC1)c(=O)n2C [AZD7648] (first compound max 1 µM, 7x7, partner max 10 µM)",0.683,1,0.35,0.208,0.152,0.742,1,0.9,0.229,0.319,1,0.277,0.41,0.492,0.455,0.297,1,0.128,1,0.211
"Cc1c2c(nn1C)CSCc1cc(n(C)n1)CSc1cc(c3ccccc3c1)OCCCc1c(C(=O)O)n(C)c3c-2c(Cl)ccc13 [AZD5991] + Cn1cnc2c(F)c(Nc3ccc(Br)cc3Cl)c(C(=O)NOCCO)cc21 [Selumetinib] (first compound max 1 µM, 7x7, partner max 3 µM)",0.62,1,0.315,0.638,0.423,0.509,1,0.848,0.274,0.875,1,0.669,0.236,0.414,0.521,0.527,1,0.325,1,0.751
"NC1(C(=O)N[C@@H](CCO)c2ccc(Cl)cc2)CCN(c2ncnc3[nH]ccc23)CC1 [Capivasertib] + CC(=O)c1c(C)c2cnc(Nc3ccc(N4CCNCC4)cn3)nc2n(C2CCCC2)c1=O [Palbociclib] (first compound max 10 µM, 7x7, partner max 10 µM)",0.723,0.924,0.731,0.853,0.354,0.668,0.419,0.572,0.441,0.619,0.942,0.518,0.849,0.542,0.64,0.269,0.799,0.151,0.739,0.397

# — the supplement of paper PMC11061612
